{"source": "the supplement of paper PMC10307832", "assay_in_all_cases": "relative viability (nuclei count vs DMSO), 5 days (fraction); higher = more cells survive", "key": {"NCI-H2347": {"tested_on": "NCI-H2347", "method_in_brief": "(§1)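 The day after seeding in 1536-well plates, lung cancer cell lines were treated by pin tool with a single drug, or with a fixed anchor-drug dose together with five library-drug doses (not always all listed) in √10 steps. After 5 days, a combined fix-and-stain solution (final 0.05% Triton X-100, 1% formaldehyde, 1 ug/ml Hoechst) was added. Nuclei counted on 4× images gave relative viability as treated counts over vehicle counts, reported as the median of duplicate plates.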"}, "LCLC-103H": {"tested_on": "LCLC-103H", "method_in_brief": "as §1"}, "NCI-H727": {"tested_on": "NCI-H727", "method_in_brief": "as §1"}, "NCI-H2170": {"tested_on": "NCI-H2170", "method_in_brief": "as §1"}, "NCI-H520": {"tested_on": "NCI-H520", "method_in_brief": "as §1"}, "NCI-H661": {"tested_on": "NCI-H661", "method_in_brief": "as §1"}, "NCI-H650": {"tested_on": "NCI-H650", "method_in_brief": "as §1"}, "NCI-H3122": {"tested_on": "NCI-H3122", "method_in_brief": "as §1"}, "RERF-LC-KJ": {"tested_on": "RERF-LC-KJ", "method_in_brief": "as §1"}, "NCI-H1755": {"tested_on": "NCI-H1755", "method_in_brief": "as §1"}, "SK-MES-1": {"tested_on": "SK-MES-1", "method_in_brief": "as §1"}, "NCI-H522": {"tested_on": "NCI-H522", "method_in_brief": "as §1"}, "PC-14": {"tested_on": "PC-14", "method_in_brief": "as §1"}, "NCI-H1792": {"tested_on": "NCI-H1792", "method_in_brief": "as §1"}, "NCI-H1915": {"tested_on": "NCI-H1915", "method_in_brief": "as §1"}, "NCI-H1651": {"tested_on": "NCI-H1651", "method_in_brief": "as §1"}, "NCI-H460": {"tested_on": "NCI-H460", "method_in_brief": "as §1"}, "NCI-H596": {"tested_on": "NCI-H596", "method_in_brief": "as §1"}, "NCI-H322M": {"tested_on": "NCI-H322M", "method_in_brief": "as §1"}, "LXF-289": {"tested_on": "LXF-289", "method_in_brief": "as §1"}, "SW 900": {"tested_on": "SW 900", "method_in_brief": "as §1"}, "NCI-H1355": {"tested_on": "NCI-H1355", "method_in_brief": "as §1"}, "NCI-H441": {"tested_on": "NCI-H441", "method_in_brief": "as §1"}}}
{"smiles": "CC(C)Oc1cc(Nc2nc(N[C@@H](C)c3ccc(F)cn3)ncc2Cl)n[nH]1", "note": "[AZ23] + Nc1ncn([C@H]2C[C@H](O)[C@@H](CO)O2)c(=O)n1 [Decitabine] (partner 2 µM)", "values": [{"measurement": "relative viability", "setting": "NCI-H2347; first compound 0.01 µM", "result": 0.652}, {"measurement": "relative viability", "setting": "NCI-H2347; first compound 0.03162 µM", "result": 0.571}, {"measurement": "relative viability", "setting": "NCI-H2347; first compound 0.3162 µM", "result": 0.625}, {"measurement": "relative viability", "setting": "LCLC-103H; first compound 0.01 µM", "result": 0.765}, {"measurement": "relative viability", "setting": "LCLC-103H; first compound 0.03162 µM", "result": 0.691}, {"measurement": "relative viability", "setting": "LCLC-103H; first compound 0.3162 µM", "result": 0.743}, {"measurement": "relative viability", "setting": "NCI-H727; first compound 0.01 µM", "result": 0.956}, {"measurement": "relative viability", "setting": "NCI-H727; first compound 0.03162 µM", "result": 0.945}, {"measurement": "relative viability", "setting": "NCI-H727; first compound 0.3162 µM", "result": 0.822}, {"measurement": "relative viability", "setting": "NCI-H2170; first compound 0.01 µM", "result": 0.482}, {"measurement": "relative viability", "setting": "NCI-H2170; first compound 0.03162 µM", "result": 0.475}, {"measurement": "relative viability", "setting": "NCI-H2170; first compound 0.3162 µM", "result": 0.483}, {"measurement": "relative viability", "setting": "NCI-H520; first compound 0.01 µM", "result": 0.634}, {"measurement": "relative viability", "setting": "NCI-H520; first compound 0.03162 µM", "result": 0.524}, {"measurement": "relative viability", "setting": "NCI-H520; first compound 0.3162 µM", "result": 0.418}, {"measurement": "relative viability", "setting": "NCI-H661; first compound 0.01 µM", "result": 0.556}, {"measurement": "relative viability", "setting": "NCI-H661; first compound 0.03162 µM", "result": 0.582}, {"measurement": "relative viability", "setting": "NCI-H661; first compound 0.3162 µM", "result": 0.604}, {"measurement": "relative viability", "setting": "NCI-H650; first compound 0.01 µM", "result": 0.355}, {"measurement": "relative viability", "setting": "NCI-H650; first compound 0.03162 µM", "result": 0.329}, {"measurement": "relative viability", "setting": "NCI-H650; first compound 0.3162 µM", "result": 0.336}, {"measurement": "relative viability", "setting": "NCI-H3122; first compound 0.01 µM", "result": 0.411}, {"measurement": "relative viability", "setting": "NCI-H3122; first compound 0.03162 µM", "result": 0.455}, {"measurement": "relative viability", "setting": "NCI-H3122; first compound 0.3162 µM", "result": 0.469}, {"measurement": "relative viability", "setting": "RERF-LC-KJ; first compound 0.01 µM", "result": 0.783}, {"measurement": "relative viability", "setting": "RERF-LC-KJ; first compound 0.03162 µM", "result": 0.74}, {"measurement": "relative viability", "setting": "RERF-LC-KJ; first compound 0.3162 µM", "result": 0.817}, {"measurement": "relative viability", "setting": "NCI-H1755; first compound 0.01 µM", "result": 0.844}, {"measurement": "relative viability", "setting": "NCI-H1755; first compound 0.03162 µM", "result": 0.705}, {"measurement": "relative viability", "setting": "NCI-H1755; first compound 0.3162 µM", "result": 0.697}, {"measurement": "relative viability", "setting": "SK-MES-1; first compound 0.03162 µM", "result": 0.382}, {"measurement": "relative viability", "setting": "SK-MES-1; first compound 0.3162 µM", "result": 0.357}, {"measurement": "relative viability", "setting": "NCI-H522; first compound 0.01 µM", "result": 0.701}, {"measurement": "relative viability", "setting": "NCI-H522; first compound 0.03162 µM", "result": 0.736}, {"measurement": "relative viability", "setting": "NCI-H522; first compound 0.3162 µM", "result": 0.679}, {"measurement": "relative viability", "setting": "PC-14; first compound 0.01 µM", "result": 0.191}, {"measurement": "relative viability", "setting": "PC-14; first compound 0.03162 µM", "result": 0.213}, {"measurement": "relative viability", "setting": "PC-14; first compound 0.3162 µM", "result": 0.263}, {"measurement": "relative viability", "setting": "NCI-H1792; first compound 0.01 µM", "result": 0.462}, {"measurement": "relative viability", "setting": "NCI-H1792; first compound 0.03162 µM", "result": 0.549}, {"measurement": "relative viability", "setting": "NCI-H1792; first compound 0.3162 µM", "result": 0.48}, {"measurement": "relative viability", "setting": "NCI-H1915; first compound 0.01 µM", "result": 0.293}, {"measurement": "relative viability", "setting": "NCI-H1915; first compound 0.03162 µM", "result": 0.272}, {"measurement": "relative viability", "setting": "NCI-H1915; first compound 0.3162 µM", "result": 0.269}, {"measurement": "relative viability", "setting": "NCI-H1651; first compound 0.01 µM", "result": 0.621}, {"measurement": "relative viability", "setting": "NCI-H1651; first compound 0.03162 µM", "result": 0.644}, {"measurement": "relative viability", "setting": "NCI-H1651; first compound 0.3162 µM", "result": 0.618}, {"measurement": "relative viability", "setting": "NCI-H460; first compound 0.01 µM", "result": 0.489}, {"measurement": "relative viability", "setting": "NCI-H460; first compound 0.03162 µM", "result": 0.514}, {"measurement": "relative viability", "setting": "NCI-H460; first compound 0.3162 µM", "result": 0.55}, {"measurement": "relative viability", "setting": "NCI-H596; first compound 0.01 µM", "result": 1.17}, {"measurement": "relative viability", "setting": "NCI-H596; first compound 0.03162 µM", "result": 1.07}, {"measurement": "relative viability", "setting": "NCI-H596; first compound 0.3162 µM", "result": 0.955}, {"measurement": "relative viability", "setting": "NCI-H322M; first compound 0.01 µM", "result": 0.533}, {"measurement": "relative viability", "setting": "NCI-H322M; first compound 0.03162 µM", "result": 0.668}, {"measurement": "relative viability", "setting": "NCI-H322M; first compound 0.3162 µM", "result": 0.7}, {"measurement": "relative viability", "setting": "LXF-289; first compound 0.01 µM", "result": 0.469}, {"measurement": "relative viability", "setting": "LXF-289; first compound 0.03162 µM", "result": 0.374}, {"measurement": "relative viability", "setting": "LXF-289; first compound 0.3162 µM", "result": 0.403}, {"measurement": "relative viability", "setting": "SW 900; first compound 0.01 µM", "result": 0.442}, {"measurement": "relative viability", "setting": "SW 900; first compound 0.3162 µM", "result": 0.352}, {"measurement": "relative viability", "setting": "NCI-H1355; first compound 0.01 µM", "result": 0.377}, {"measurement": "relative viability", "setting": "NCI-H1355; first compound 0.03162 µM", "result": 0.366}, {"measurement": "relative viability", "setting": "NCI-H1355; first compound 0.3162 µM", "result": 0.333}, {"measurement": "relative viability", "setting": "NCI-H441; first compound 0.01 µM", "result": 0.294}, {"measurement": "relative viability", "setting": "NCI-H441; first compound 0.03162 µM", "result": 0.248}, {"measurement": "relative viability", "setting": "NCI-H441; first compound 0.3162 µM", "result": 0.239}]}
